# According to the supplement of paper PMC10307832:
# Key:
# Assay in all cases: relative viability (nuclei count vs DMSO), 5 days (fraction); higher = more cells survive
# [1] = system: NCI-H1915
# Outline: (§1)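 Five library-drug doses in √10 steps were combined with a fixed anchor-drug dose, or a single drug was given alone, by pin tool to lung cancer cell lines in 1536-well plates the day after seeding. Nuclei were stained and counted after 5 days. Relative viability is the nuclei count in treated wells over that in vehicle wells, taken as the median of duplicate plates.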
# [2] = system: NCI-H2228
# Outline: as §1
# [3] = system: H3255
# Outline: as §1
# [4] = system: NCI-H2347
# Outline: as §1
# [5] = system: NCI-H441
# Outline: as §1
# [6] = system: A-427
# Outline: as §1
# [7] = system: LCLC-97TM1
# Outline: as §1
# [8] = system: HCC-44
# Outline: as §1
# [9] = system: NCI-H2170
# Outline: as §1
# [10] = system: RERF-LC-KJ
# Outline: as §1
# [11] = system: HARA
# Outline: as §1
# [12] = system: PC-14
# Outline: as §1
# [13] = system: NCI-H2405
# Outline: as §1
# [14] = system: HCC-366
# Outline: as §1
# [15] = system: NCI-H838
# Outline: as §1
# [16] = system: NCI-H520
# Outline: as §1
# [17] = system: NCI-H1975
# Outline: as §1
# [18] = system: NCI-H1395
# Outline: as §1
# [19] = system: NCI-H1993
# Outline: as §1
# [20] = system: NCI-H1755
# Outline: as §1
# [21] = system: SK-MES-1
# Outline: as §1
# [22] = system: LXF-289
# Outline: as §1
# [23] = system: NCI-H3122
# Outline: as §1
compound,measurement,setting,value
Oc1nc(-c2ccc(C(F)(F)F)cc2)nc2c1CSCC2 [XAV939] + O=C(CCCCCCC(=O)Nc1ccccc1)NO [Vorinostat] (partner 1 µM),relative viability,[1]; first compound 0.08 µM,0.603
same,relative viability,[1]; first compound 0.253 µM,0.51
same,relative viability,[1]; first compound 0.8 µM,0.5
same,relative viability,[1]; first compound 2.53 µM,0.498
same,relative viability,[2]; first compound 0.08 µM,0.639
same,relative viability,[2]; first compound 0.253 µM,0.589
same,relative viability,[2]; first compound 0.8 µM,0.775
same,relative viability,[2]; first compound 2.53 µM,0.597
same,relative viability,[3]; first compound 0.08 µM,0.809
same,relative viability,[3]; first compound 0.253 µM,0.692
same,relative viability,[3]; first compound 0.8 µM,0.648
same,relative viability,[3]; first compound 2.53 µM,0.712
same,relative viability,[4]; first compound 0.08 µM,0.609
same,relative viability,[4]; first compound 0.253 µM,0.496
same,relative viability,[4]; first compound 0.8 µM,0.593
same,relative viability,[4]; first compound 2.53 µM,0.414
same,relative viability,[5]; first compound 0.08 µM,1.02
same,relative viability,[5]; first compound 0.253 µM,0.822
same,relative viability,[5]; first compound 0.8 µM,1.09
same,relative viability,[5]; first compound 2.53 µM,0.782
same,relative viability,[6]; first compound 0.08 µM,0.804
same,relative viability,[6]; first compound 0.253 µM,0.869
same,relative viability,[6]; first compound 0.8 µM,0.895
same,relative viability,[6]; first compound 2.53 µM,0.745
same,relative viability,[7]; first compound 0.08 µM,1.05
same,relative viability,[7]; first compound 0.253 µM,0.686
same,relative viability,[7]; first compound 2.53 µM,0.449
same,relative viability,[8]; first compound 0.08 µM,0.981
same,relative viability,[8]; first compound 0.253 µM,0.919
same,relative viability,[8]; first compound 0.8 µM,0.947
same,relative viability,[8]; first compound 2.53 µM,1.04
same,relative viability,[9]; first compound 0.08 µM,0.86
same,relative viability,[9]; first compound 0.253 µM,0.614
same,relative viability,[9]; first compound 0.8 µM,0.739
same,relative viability,[9]; first compound 2.53 µM,0.543
same,relative viability,[10]; first compound 0.08 µM,0.707
same,relative viability,[10]; first compound 0.253 µM,0.609
same,relative viability,[10]; first compound 0.8 µM,0.643
same,relative viability,[10]; first compound 2.53 µM,0.368
same,relative viability,[11]; first compound 0.08 µM,0.529
same,relative viability,[11]; first compound 0.253 µM,0.511
same,relative viability,[11]; first compound 0.8 µM,0.648
same,relative viability,[11]; first compound 2.53 µM,0.535
same,relative viability,[12]; first compound 0.08 µM,0.96
same,relative viability,[12]; first compound 0.253 µM,0.622
same,relative viability,[12]; first compound 0.8 µM,0.789
same,relative viability,[12]; first compound 2.53 µM,0.598
same,relative viability,[13]; first compound 0.08 µM,0.639
same,relative viability,[13]; first compound 0.253 µM,0.922
same,relative viability,[13]; first compound 0.8 µM,0.913
same,relative viability,[13]; first compound 2.53 µM,0.925
same,relative viability,[14]; first compound 0.08 µM,0.398
same,relative viability,[14]; first compound 0.253 µM,0.25
same,relative viability,[14]; first compound 0.8 µM,0.293
same,relative viability,[14]; first compound 2.53 µM,0.189
same,relative viability,[15]; first compound 0.08 µM,0.685
same,relative viability,[15]; first compound 0.253 µM,0.609
same,relative viability,[15]; first compound 0.8 µM,0.658
same,relative viability,[15]; first compound 2.53 µM,0.558
same,relative viability,[16]; first compound 0.08 µM,0.722
same,relative viability,[16]; first compound 0.8 µM,0.747
same,relative viability,[16]; first compound 2.53 µM,0.717
same,relative viability,[17]; first compound 0.08 µM,0.784
same,relative viability,[17]; first compound 0.253 µM,0.588
same,relative viability,[17]; first compound 0.8 µM,0.673
same,relative viability,[17]; first compound 2.53 µM,0.667
same,relative viability,[18]; first compound 0.08 µM,0.746
same,relative viability,[18]; first compound 0.253 µM,0.774
same,relative viability,[18]; first compound 0.8 µM,0.725
same,relative viability,[18]; first compound 2.53 µM,0.849
same,relative viability,[19]; first compound 0.08 µM,0.635
same,relative viability,[19]; first compound 0.253 µM,0.625
same,relative viability,[19]; first compound 0.8 µM,0.691
same,relative viability,[19]; first compound 2.53 µM,0.789
same,relative viability,[20]; first compound 0.08 µM,0.783
same,relative viability,[20]; first compound 0.253 µM,0.729
same,relative viability,[20]; first compound 0.8 µM,0.74
same,relative viability,[20]; first compound 2.53 µM,0.602
same,relative viability,[21]; first compound 0.08 µM,1.1
same,relative viability,[21]; first compound 0.253 µM,0.954
same,relative viability,[21]; first compound 0.8 µM,0.92
same,relative viability,[21]; first compound 2.53 µM,0.831
same,relative viability,[22]; first compound 0.08 µM,0.728
same,relative viability,[22]; first compound 0.253 µM,0.68
same,relative viability,[22]; first compound 0.8 µM,0.804
same,relative viability,[22]; first compound 2.53 µM,0.8
same,relative viability,[23]; first compound 0.08 µM,1.03
same,relative viability,[23]; first compound 0.253 µM,0.401
same,relative viability,[23]; first compound 0.8 µM,0.904
same,relative viability,[23]; first compound 2.53 µM,0.997
Oc1nc(-c2ccc(C(F)(F)F)cc2)nc2c1CSCC2 [XAV939] + O=C(c1cc(Cc2n[nH]c(=O)c3ccccc23)ccc1F)N1CCN(C(=O)C2CC2)CC1 [Olaparib] (partner 8 µM),relative viability,[1]; first compound 0.08 µM,0.247
same,relative viability,[1]; first compound 0.253 µM,0.256
same,relative viability,[1]; first compound 0.8 µM,0.239
same,relative viability,[1]; first compound 2.53 µM,0.275
same,relative viability,[2]; first compound 0.08 µM,0.945
same,relative viability,[2]; first compound 0.253 µM,0.562
same,relative viability,[2]; first compound 0.8 µM,0.65
same,relative viability,[2]; first compound 2.53 µM,0.608
same,relative viability,[3]; first compound 0.08 µM,0.598
same,relative viability,[3]; first compound 0.253 µM,0.563
same,relative viability,[3]; first compound 0.8 µM,0.553
same,relative viability,[3]; first compound 2.53 µM,0.51
same,relative viability,[4]; first compound 0.08 µM,0.667
same,relative viability,[4]; first compound 0.253 µM,0.543
same,relative viability,[4]; first compound 0.8 µM,0.569
same,relative viability,[4]; first compound 2.53 µM,0.517
same,relative viability,[5]; first compound 0.08 µM,0.68
same,relative viability,[5]; first compound 0.253 µM,0.448
same,relative viability,[5]; first compound 0.8 µM,0.613
same,relative viability,[5]; first compound 2.53 µM,0.521
same,relative viability,[6]; first compound 0.08 µM,0.785
same,relative viability,[6]; first compound 0.253 µM,0.584
same,relative viability,[6]; first compound 0.8 µM,0.706
same,relative viability,[6]; first compound 2.53 µM,0.663
same,relative viability,[7]; first compound 0.08 µM,0.326
same,relative viability,[7]; first compound 0.253 µM,0.425
same,relative viability,[7]; first compound 2.53 µM,0.279
same,relative viability,[8]; first compound 0.08 µM,0.935
same,relative viability,[8]; first compound 0.253 µM,0.904
same,relative viability,[8]; first compound 0.8 µM,0.958
same,relative viability,[8]; first compound 2.53 µM,0.866
same,relative viability,[9]; first compound 0.08 µM,0.56
same,relative viability,[9]; first compound 0.253 µM,0.451
same,relative viability,[9]; first compound 0.8 µM,0.5
same,relative viability,[9]; first compound 2.53 µM,0.402
same,relative viability,[10]; first compound 0.08 µM,0.868
same,relative viability,[10]; first compound 0.253 µM,0.763
same,relative viability,[10]; first compound 0.8 µM,0.617
same,relative viability,[10]; first compound 2.53 µM,0.292
same,relative viability,[11]; first compound 0.08 µM,0.832
same,relative viability,[11]; first compound 0.253 µM,0.862
same,relative viability,[11]; first compound 0.8 µM,0.759
same,relative viability,[11]; first compound 2.53 µM,0.661
same,relative viability,[12]; first compound 0.08 µM,0.305
same,relative viability,[12]; first compound 0.253 µM,0.208
same,relative viability,[12]; first compound 0.8 µM,0.313
same,relative viability,[12]; first compound 2.53 µM,0.248
same,relative viability,[13]; first compound 0.08 µM,0.974
same,relative viability,[13]; first compound 0.253 µM,0.824
same,relative viability,[13]; first compound 0.8 µM,0.797
same,relative viability,[13]; first compound 2.53 µM,0.766
same,relative viability,[14]; first compound 0.08 µM,0.414
same,relative viability,[14]; first compound 0.253 µM,0.326
same,relative viability,[14]; first compound 0.8 µM,0.283
same,relative viability,[14]; first compound 2.53 µM,0.175
same,relative viability,[15]; first compound 0.08 µM,0.755
same,relative viability,[15]; first compound 0.253 µM,0.662
same,relative viability,[15]; first compound 0.8 µM,0.597
same,relative viability,[15]; first compound 2.53 µM,0.398
same,relative viability,[16]; first compound 0.08 µM,0.375
same,relative viability,[16]; first compound 0.8 µM,0.342
same,relative viability,[16]; first compound 2.53 µM,0.356
same,relative viability,[17]; first compound 0.08 µM,0.712
same,relative viability,[17]; first compound 0.253 µM,0.601
same,relative viability,[17]; first compound 0.8 µM,0.622
same,relative viability,[17]; first compound 2.53 µM,0.505
same,relative viability,[18]; first compound 0.08 µM,0.47
same,relative viability,[18]; first compound 0.253 µM,0.449
same,relative viability,[18]; first compound 0.8 µM,0.478
same,relative viability,[18]; first compound 2.53 µM,0.425
same,relative viability,[19]; first compound 0.08 µM,1.01
same,relative viability,[19]; first compound 0.253 µM,0.87
same,relative viability,[19]; first compound 0.8 µM,1.1
same,relative viability,[19]; first compound 2.53 µM,1.16
same,relative viability,[20]; first compound 0.08 µM,0.798
same,relative viability,[20]; first compound 0.253 µM,0.767
same,relative viability,[20]; first compound 0.8 µM,0.816
same,relative viability,[20]; first compound 2.53 µM,0.733
same,relative viability,[21]; first compound 0.08 µM,0.664
same,relative viability,[21]; first compound 0.253 µM,0.605
same,relative viability,[21]; first compound 0.8 µM,0.621
same,relative viability,[21]; first compound 2.53 µM,0.465
same,relative viability,[22]; first compound 0.08 µM,1.13
same,relative viability,[22]; first compound 0.253 µM,1.05
same,relative viability,[22]; first compound 0.8 µM,1.08
same,relative viability,[22]; first compound 2.53 µM,1.07
same,relative viability,[23]; first compound 0.08 µM,0.706
same,relative viability,[23]; first compound 0.253 µM,0.574
same,relative viability,[23]; first compound 0.8 µM,0.538
same,relative viability,[23]; first compound 2.53 µM,0.468
